pIC50: −log10 of the molar value.
Molecular target: T1, human PLC-β2 (Homo sapiens, UniProt Q00722)
T1 construct: made in house; host or cells: Sf9 cells (Spodoptera frugiperda), recombinant baculovirus
Test: PLC assay using FlashPlates (immobilized [3H]PIP2 hydrolysis)
Assay type: biochemical
Settings: for pIC50: 96-well Phospholipid FlashPlates coated with [3H]PIP2, purified recombinant human PLC-β2 or cytosolic human PLC-β2; for inhibition at 10 µM: read-out: %
Source text: The hydrolysis of phosphatidylinositol-4,5-bisphosphate (PIP2) by a specific phospholipase C-β2 (PLC-β2) produces two intracellular messengers, diacylglycerol (DAG) and inositol 1,4,5-trisphosphate ([…]), which mediate the activation of protein kinase C and intracellular Ca^2+ release. A conventional organic solvent extraction method is widely used for PLC assays to isolate IP3 from the substrate […]. The conventional PLC-β2 assay, however is terminated by addition of acidified organic solvents and subsequent extraction and phase separation. […] Accordingly, a preferred method to test the compounds of the present invention, was developed utilizing a 96-well plate assay for PLC-β2 using immobilized radiolabeled substrate to quantitatively measure the reduction in the substrate level without a need for organic solvent extraction. The automated PLC-β2 assay described herein provides a convenient method for quantitative measurement of phospholipase C activities in a high throughput fashion.
Ninety-six well Phospholipid FlashPlates were coated with 0.2 mL of 50 mM Tris/HCl (pH 7.4), 0.01% Ac-BSA and 50,000 cpm of ^[3H]PIP2 (phosphatidylinositol-4,5-bisphosphate) at 4° C. for 72 h. The wells were aspirated and washed twice with PBS. The reactions were conducted directly in the wells in PLC reaction buffer containing 50 mM Tris/HCl (pH 7.2), 2.75 mM EDTA (pH 7.3), 80 mM KCl, 10 mM LiCl, 0.04% DOC and 2 mM CaCl2 in the absence or presence of the purified recombinant human PLC-β2 (prepared as described hereafter) or cytosolic human PLC-β2 from […]. Reduction of radioactivity was monitored by a Packard TopCount instrument (Packard Instrument Company, Conn., USA).
Suspension cultures of Sf9 cells were maintained in a spinner flask at 27° C. and stirred at 90 rpm. The cells were grown in Grace's media supplemented with 10% (v/v) fetal bovine serum, 3.3 g/l yeastolate, 3.3 g/l lactalbumin hydrosylate, glutamine (6.4 mM final), […] gentamicin, and 50 µg/ml kanamycin. Suspension of Sf9 cells (1.0×10^6 cells/ml) were infected with 5 pfu/cell of recombinant baculovirus encoding PLC-β2 and incubated at 27° C. for 72 h. The cells were collected by centrifugation (500×g, 7 min, 4° C.) and disrupted by hypotonic lysis buffer containing 20 mM Tris/HCl, pH 7.4, 5 mM MgCl2, 2 mM EGTA, 200 μM PMSF, 200 μM benzamidine and 1 μM pepstatin A. The lysate was sonicated on ice and the nuclei and unbroken cells removed by centrifugation (500×g, 5 min, 4° C.). The supernatant was recovered and clarified by centrifugation (34,000 rpm, 60 min, 4° C.). The supernatant was used as a crude cytosolic fraction (Paterson, A., Boyer, J. L., Watts, V. J., Morris, A. J., Price, E. M., Harden, T. K. (1995) Concentration of enzyme-dependent activation of PLC β1 and PLC β2 by Gα11 and βγ subunits. Cellular Signalling 7, 709-720).
Crude cytosol prepared from Sf9 cells expressing PLC-β2 was purified initially by chromatography on a 10 ml column of Q-Sepharose FF, equilibrated in buffer A (25 mM HEPES, pH 7.2,2 mM DTT, 2mM EDTA, 2 mM EGTA, 200 μM PMSF, 200 μM benzamidine, 1 μM pepstatin A containing 10 mM NaCl). […]

T1 sequence (Q00722 whole entry): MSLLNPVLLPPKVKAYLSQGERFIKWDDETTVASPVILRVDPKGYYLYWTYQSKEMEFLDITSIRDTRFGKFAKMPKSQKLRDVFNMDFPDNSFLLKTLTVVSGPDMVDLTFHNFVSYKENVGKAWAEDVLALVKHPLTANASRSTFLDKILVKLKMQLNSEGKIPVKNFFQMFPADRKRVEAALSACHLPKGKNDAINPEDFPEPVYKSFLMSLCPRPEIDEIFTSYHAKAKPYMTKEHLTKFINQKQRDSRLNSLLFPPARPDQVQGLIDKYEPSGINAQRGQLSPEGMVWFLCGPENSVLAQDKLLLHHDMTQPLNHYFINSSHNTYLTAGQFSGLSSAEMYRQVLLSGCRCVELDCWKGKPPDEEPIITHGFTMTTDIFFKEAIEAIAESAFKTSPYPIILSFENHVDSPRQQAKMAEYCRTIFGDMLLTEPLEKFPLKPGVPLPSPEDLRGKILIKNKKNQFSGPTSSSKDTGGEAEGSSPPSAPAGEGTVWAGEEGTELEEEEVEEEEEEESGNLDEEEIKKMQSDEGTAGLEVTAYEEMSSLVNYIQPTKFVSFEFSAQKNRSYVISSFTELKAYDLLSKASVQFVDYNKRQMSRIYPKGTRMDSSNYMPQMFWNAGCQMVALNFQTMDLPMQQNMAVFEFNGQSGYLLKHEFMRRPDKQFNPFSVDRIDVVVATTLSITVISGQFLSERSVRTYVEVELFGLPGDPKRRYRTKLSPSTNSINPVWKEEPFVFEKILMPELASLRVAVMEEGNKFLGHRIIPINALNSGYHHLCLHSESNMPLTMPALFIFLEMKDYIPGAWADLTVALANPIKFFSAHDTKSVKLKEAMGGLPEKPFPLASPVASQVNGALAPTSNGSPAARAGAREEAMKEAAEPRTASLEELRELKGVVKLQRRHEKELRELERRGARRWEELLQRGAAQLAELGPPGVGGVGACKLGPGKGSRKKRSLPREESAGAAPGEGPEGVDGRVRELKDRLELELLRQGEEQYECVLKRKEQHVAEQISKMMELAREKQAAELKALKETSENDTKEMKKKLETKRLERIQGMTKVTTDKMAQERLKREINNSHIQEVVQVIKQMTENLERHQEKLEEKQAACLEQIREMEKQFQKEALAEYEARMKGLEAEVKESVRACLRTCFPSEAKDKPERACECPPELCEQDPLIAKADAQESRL

| SMILES | pIC50 | inhibition at 10 µM [%] |
| --- | --- | --- |
| NC(=O)c1ccc(N2CCC(=C(c3ccccc3)c3ccccc3)CC2)c(NC(=O)Nc2ccccc2)c1 [Cpd 7, 4-[4-(diphenylmethylene)-1-piperidinyl]-3-[[(phenylamino)carbonyl]amino]-benzamide] |  | 49.8 |
| NC(=O)c1ccc(N2CCC(C(c3ccccc3)c3ccccc3)CC2)c(NC(=O)Nc2ccccc2)c1 [Cpd 6, 4-[4-(diphenylmethyl)-1-piperidinyl]-3-[[(phenylamino)carbonyl]amino]-benzamide] |  | 60.7 |
| NC(=O)c1ccc(N2CCC(Cc3ccccc3)CC2)c(NC(=O)Nc2ccccc2)c1 [Cpd 1, 3-[[(phenylamino)carbonyl]amino]-4-[4-(phenylmethyl)-1-piperidinyl]-benzamide] | 5.47 |  |

Continued, in another order:

| pIC50 | SMILES | inhibition at 10 µM [%] |
| --- | --- | --- |
| 5.15 | NC(=O)c1ccc(N2CCC(c3ccccc3)CC2)c(NC(=O)Nc2ccccc2)c1 [Cpd 2, 3-[[(phenylamino)carbonyl]amino]-4-(4-phenyl-1-piperidinyl)-benzamide] |  |
| 4.96 | NC(=O)c1ccc(N2CCC(c3ccccc3)CC2)c(NC(=O)Nc2ccc3c(c2)OCO3)c1 [Cpd 3, 3-[[(1,3-benzodioxol-5-ylamino)carbonyl]amino]-4-(4-phenyl-1-piperidinyl)-benzamide] |  |
